Data set [1] addresses T1, CXCR4 (Homo sapiens, UniProt P61073).
T1 construct: CCRF-CEM cells, a human T-cell ALL line that endogenously expresses CXCR4; endogenous in cells; host or cells: CCRF-CEM (human T-cell acute lymphoblastic leukemia line)
As to the kind of experiment: CXCR4 chemotaxis assay (Transwell, CCRF-CEM cells). Format: cell-based. The following applies: DMSO vehicle. An excerpt: Chemotaxis assays are utilized to determine the effect of compound on the directed migration of cells in response to chemokine. In general, cells that express a receptor of interest are placed in the upper chamber of a Transwell chemotaxis plate (Corning) and allowed to migrate through a polycarbonate membrane to a lower chamber containing the appropriate receptor-specific ligand. To test for antagonist or potentiating activity, cells are mixed with the desired concentration of compound prior to addition to the upper chamber. Conversely, agonist activity is determined by adding compound in the bottom chamber only without endogenous chemokine. The effect of compound is quantified by several parameters, including the extent of maximum response, the shift of agonist dose-response curves, and the area under the curve.
To measure the CXCR4 test compound elicited CXCR4-dependent migration of cells, the appropriate concentration of control agonist CXCL12 or test compound is diluted in phenol red-free RMPI-1640/20 mM HEPES/0.5% BSA buffer and placed in the bottom chamber of a transwell apparatus. CCRF-CEM cells, a human T-cell ALL line that endogenously expresses CXCR4, are washed twice in buffer and resuspended at 133,000 cells/ml. A 75 μl sample of the cell suspension is mixed with the test compound of interest and placed in the upper chamber of a 5-micron transwell apparatus.
To measure the effect of test compound on CXCL12 elicited CXCR4-dependent migration of cells, the appropriate concentration of CXCL12 is diluted in phenol red-free RMPI-1640/20 mM HEPES/0.5% BSA buffer and placed in the bottom chamber of a transwell apparatus. CCRF-CEM cells, a human T-cell ALL line that endogenously expresses CXCR4, are washed twice in buffer and resuspended at 133,000 cells/ml. A 75 μl sample of this suspension is mixed with the test compound of interest and placed in the upper chamber of a 5-micron transwell apparatus.
To initiate cell migration, the assembled transwell plate is placed in a 37° C., […] incubator for a specified time interval, typically between 30 and 120 minutes. After incubation, the unit is disassembled and the lower chamber placed at −80° C. overnight to facilitate lysis of cells. To quantify migrated cells, plates are thawed at 37° C. in a humidified chamber, and then a sample volume is removed from each well and mixed with an equal volume of CyQuant (Invitrogen) working solution in opaque plates. The fluorescence intensity of each well represents the DNA content and is directly proportional to cell number. Each sample is typically run in duplicate or triplicate and each plate include two separate negative controls. The plate background control, which includes no cells in the upper chamber, is subtracted from all values. […]

The target of data set [2] is T1, CXCR4. The data set can be described thus: Calcium flux assay, agonist mode, Flexstation (CCRF-CEM cells). Format: cell-based. The note with it: CCRF-CEM, percent of maximum response compared with SDF-1α, read-out: % Intrinsic Activity. In general terms: Calcium assays in cells follow changes in intracellular calcium, usually with a dye or a luminescent sensor.
Data set [3] is described as follows: Pharmacokinetic analysis in mice (plasma, LC/MS). It is filed as in vivo. The note with it: mice. Here is the method: To determine the pharmacokinetic profile of the CXCR4 modulators, compounds were administered as single subcutaneous injection to 6-8 week old male mice at doses of either […] (three or four mice/group). […] Dosing of 0.5 μmol/kg or 1 μmol/kg were used for intravenous dosing. […] Mice were sacrificed and blood samples collected at 15 minutes, 30 minutes, 1 hour, 2 hours, 4 hours, 8 hours, and 24 hours after dosing. The concentration of compound in plasma samples was analyzed by LC/MS according to the method below.
To this, 5 μL of the analyte compound in AcN:H2O:FA (70:30:1%) of 100 μM concentration was added to get 5 μM concentration.
Serial calibration standards in plasma or plasma samples were transferred to clean labeled tubes and mixed with 3 volumes of acetonitrile with internal standard, tolbutamide, in order to precipitate proteins. The mixtures were vortexed and centrifuged at 12000 RPM (15320 g) for 10 minutes. Supernatants were transferred to HPLC injection vials or 96-well plates and 5 μL were injected into the LC-MS/MS system.
Noncompartmental pharmacokinetic analyses were performed using WinNonlin Professional (version 5.2) software (Pharsight, Cary, N.C.). The data were analyzed using the extravascular input model. For each subject, pharmacokinetic parameters were calculated individually as follows and then averaged. The maximum drug concentration in plasma, Cmax, and Tmax, the time to achieve Cmax, were calculated directly from the concentration-time curves. The area under the plasma concentration-time curve from hour 0 to the last measurable concentration in plasma, AUClast, was estimated by the linear trapezoidal rule. The area under the plasma concentration-time curve from hour 0 to infinity estimated using the following formula: AUCinf—obs=AUClast+Ct/Lambda_z, where Ct is the last measurable concentration in plasma, and Lambda_z is the terminal elimination rate constant estimated using log-linear regression during the terminal elimination phase. The number of points used in Lambda_z calculation was determined by visual inspection of the data describing the terminal phase and evaluation of the correlation coefficient associated with the regression line. T1/2, the terminal elimination half-life=ln(2)/Lambda_z. Mean residence time MRT, was calculated as following: MRT=(AUMCinf/AUCinf). Subcutaneous absorption bioavailability was calculated as the AUCinf following subcutaneous dosing divided by the AUCinf following intravenous dosing. Results were expressed as percentages.

A further data set has as its system male BALB/c mice. The data set can be described thus: Mobilization of polymorphonuclear leukocytes (PMNs) in mice. The note with it: for Lymphocytes (×10^3 μl) Mean ± SD / PMNs (×10^3 μl) Mean ± SD: blood 3 hours after injection. It is filed as in vivo. Here is the method:
The effect of Compound 26 on mobilization of PMNs following subcutaneous administration was evaluated in mice. […] Louis, Mo.) was administered subcutaneously to 10 mice. […] Neutrophil and lymphocyte counts were determined using a Hemavet Model 950FS cell counter (Drew Scientific, Dallas, Tex.).

For data set [4], the target named is T1, CXCR4. The data set can be described thus: Calcium flux assay, agonist mode, FLIPR (CCRF-CEM cells). Format: cell-based. The note with it: percent of maximum response compared with SDF-1α, read-out: % Intrinsic Activity. Here is the method:
The calcium flux assay was used to assess the test compounds' ability to activate the CXCR4 receptor in CCRF-CEM cells (human T lymphoblasts from acute lymphoblastic leukemia). […] After dye loading by incubating with Calcium-4 dye at 37° C. for 1 hour, cell plates were read at 37° C. using the Fluorescent Imaging Plate Reader (FLIPR). Receptor activation was assessed by measuring changes in fluorescent intensity after the addition of the test compounds or the reference agonist SDF-1α on the FLIPR.

Where a SMILES comes first, the peptide text is derived from it. Where no end group is shown, it is not given here. [ ]: non-standard residue; d: D form. The star is where a group is joined. Hexadecanesulfonyl = CCCCCCCCCCCCCCCCS(=O)(=O)*; Palmitoyl = CCCCCCCCCCCCCCCC(=O)*

T1 sequence (P61073 whole entry): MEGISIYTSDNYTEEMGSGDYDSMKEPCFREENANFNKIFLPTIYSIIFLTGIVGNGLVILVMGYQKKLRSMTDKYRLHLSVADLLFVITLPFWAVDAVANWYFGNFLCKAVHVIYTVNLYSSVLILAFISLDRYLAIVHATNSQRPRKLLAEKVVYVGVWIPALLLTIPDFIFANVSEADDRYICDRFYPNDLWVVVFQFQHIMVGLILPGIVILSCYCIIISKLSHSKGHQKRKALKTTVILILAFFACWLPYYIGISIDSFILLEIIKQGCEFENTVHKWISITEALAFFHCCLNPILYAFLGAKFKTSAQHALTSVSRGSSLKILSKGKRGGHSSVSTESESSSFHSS

In the case of “43: i3 loop peptide SKLSHSKGHQKRKALKTTVIL (SEQ ID NO: 39), lipid Pal (also: lipid Pal attached, position not given here) [Compound 43]”, in the data set with CXCR4 [1], the “AUC (% of Vehicle)” value is reported as 226.59 % of Vehicle and the “Max (% of Vehicle)” value is listed as 202.16 % of Vehicle.
Take “44: i4 loop peptide GAKFKTSAQHALTSVR (SEQ ID NO: 40), lipid Pal (also: lipid Pal attached, position not given here) [Compound 44]”: in the data set with CXCR4 [1], the “AUC (% of Vehicle)” value is on record as 56.75 % of Vehicle and the “Max (% of Vehicle)” value is recorded as 56.7 % of Vehicle.
What is called bioavailability is the share of a dose that reaches the circulation, judged against a reference dose that is usually intravenous. A word on the half-life: it is the time in which the quantity being followed falls by half. Usually Tmax stands for the time at which the peak concentration occurs. As to `CCCCCCCCCCCCCCCC(=O)NCC(=O)NCC(=O)N[C@@H](Cc1ccc(O)cc1)C(=O)N[C@@H](CCC(N)=O)C(=O)N[C@@H](CCCCN)C(=O)N[C@@H](CCCCN)C(=O)N[C@@H](CC(C)C)C(=O)N[C@@H](CCCNC(=N)N)C(=O)N1CCC[C@@H]1C(=O)N[C@@H](Cc1c[nH]cn1)C(=O)N[C@H](C(=O)N[C@@H](CC(=O)O)C(=O)N[C@@H](CCCCN)C(=O)N[C@@H](Cc1ccc(O)cc1)C(=O)N[C@@H](CCCNC(=N)N)C(=O)N[C@@H](CC(C)C)C(N)=O)[C@@H](C)O` [Compound 26] (Palmitoyl-GGYQKKLR[dP]HTDKYRL-NH2; C-terminus assumed), the Emax at CXCR4 [2] amounted to 91.2%. Besides, the bioavailability in data set [3] (male, mouse, in vivo, 2.5 umol/kg, subcutaneous 2.5 μmol/kg, AUCinf subcutaneous divided by AUCinf intravenous, read-out: Bioavailability (%)) came to 88%. Besides, the half-life in data set [3] (male, mouse, in vivo, sc, 2.5 umol/kg, single subcutaneous injection, 2.5 μmol/kg, read-out: Half-life elimination (converted)) is 2.4 h. For the same compound, the MRT inf in data set [3] (male, mouse, in vivo, sc, 2.5 umol/kg, single subcutaneous injection, 2.5 μmol/kg, read-out: MRT INFobs) is 4.5 h. For the same compound, the Tmax in data set [3] (male, mouse, in vivo, sc, 2.5 umol/kg, single subcutaneous injection, 2.5 μmol/kg, read-out: Tmax) was 2 h. Also, in data set [3] (subcutaneous), the “bioavailability following subcutaneous administration (comparison in words)” value is listed as “greater than that of compound 48”. Besides, the “Lymphocytes (×10^3 μl) Mean ± SD” value in the data set on male BALB/c mice (0.2 μmol/kg subcutaneous) is listed as 4.39 ± 1.33 ×10^3 μl; in the data set on male BALB/c mice (0.66 μmol/kg subcutaneous), 5.14 ± 2.22 ×10^3 μl; in the data set on male BALB/c mice (2 μmol/kg subcutaneous), 4.15 ± 1.97 ×10^3 μl; in the data set on male BALB/c mice (6.66 μmol/kg subcutaneous), 3.74 ± 2.12 ×10^3 μl. For the same compound, the “PMNs (×10^3 μl) Mean ± SD” value is recorded as 3.60 ± 1.89 ×10^3 μl in the data set on male BALB/c mice (0.2 μmol/kg subcutaneous), 5.03 ± 1.97 ×10^3 μl with male BALB/c mice (0.66 μmol/kg subcutaneous), 5.92 ± 1.73 ×10^3 μl with male BALB/c mice (2 μmol/kg subcutaneous) and 7.11 ± 2.82 ×10^3 μl in the data set on male BALB/c mice (6.66 μmol/kg subcutaneous). In the data set on male BALB/c mice (systemic, subcutaneous injection), the “release of bone marrow PMNs (in words)” value was “acted as a functional antagonist to elicit release of bone marrow PMNs in a dose responsive fashion”.
As for `CCCCCCCCCCCCCCCCS(=O)(=O)NCC(=O)NCC(=O)N[C@@H](Cc1ccc(O)cc1)C(=O)N[C@@H](CCC(N)=O)C(=O)N[C@@H](CCCCN)C(=O)N[C@@H](CCCCN)C(=O)N[C@@H](CC(C)C)C(=O)N[C@@H](CCCNC(=N)N)C(=O)N1CCC[C@@H]1C(=O)N[C@@H](Cc1c[nH]cn1)C(=O)N[C@H](C(=O)N[C@@H](CC(=O)O)C(=O)N[C@@H](CCCCN)C(=O)N[C@@H](Cc1ccc(O)cc1)C(=O)N[C@@H](CCCNC(=N)N)C(=O)N[C@@H](CC(C)C)C(N)=O)[C@@H](C)O` [Compound 46, CH3(CH2)15SO2— GGYQKKLRpHTDKYRL-amide] (Hexadecanesulfonyl-GGYQKKLR[dP]HTDKYRL-NH2), at CXCR4 [4], the Emax is 107%.

Values taken from patent US9155795B2, “CXCR4 receptor compounds” (Anchor Therapeutics, Inc., priority 2010, dated 2015).
